Assay results reported in ChEMBL document CHEMBL4837183, “Antiproliferative Bufadienolides from the Bulbs of Drimia altissima” (2021).

How the values were obtained:
Type in all cases: functional
SNB-75 = test: Growth inhibition of human SNB-75 cells measured after 48 hrs by SRB assay
OVCAR-5 = test: Growth inhibition of human OVCAR-5 cells measured after 48 hrs by SRB assay
HOP-62 = test: Growth inhibition of human HOP-62 cells measured after 48 hrs by SRB assay
UACC-257 = test: Growth inhibition of human UACC-257 cells measured after 48 hrs by SRB assay
NCI-H522 = test: Growth inhibition of human NCI-H522 cells measured after 48 hrs by SRB assay
CAKI-1 = test: Growth inhibition of human CAKI-1 cells measured after 48 hrs by SRB assay
786-0 = test: Growth inhibition of human 786-0 cells measured after 48 hrs by SRB assay
TK-10 = test: Growth inhibition of human TK-10 cells measured after 48 hrs by SRB assay
CCRF-CEM = test: Growth inhibition of human CCRF-CEM cells measured after 48 hrs by SRB assay
OVCAR-8 = test: Growth inhibition of human OVCAR-8 cells measured after 48 hrs by SRB assay
BT-549 = test: Growth inhibition of human BT-549 cells measured after 48 hrs by SRB assay
NCI-H226 = test: Growth inhibition of human NCI-H226 cells measured after 48 hrs by SRB assay
HCC 2998 = test: Growth inhibition of human HCC 2998 cells measured after 48 hrs by SRB assay
RXF 393 = test: Growth inhibition of human RXF 393 cells measured after 48 hrs by SRB assay
DU-145 = test: Growth inhibition of human DU-145 cells measured after 48 hrs by SRB assay
MOLT-4 = test: Growth inhibition of human MOLT-4 cells measured after 48 hrs by SRB assay
SK-MEL-2 = test: Growth inhibition of human SK-MEL-2 cells measured after 48 hrs by SRB assay
T47D = test: Growth inhibition of human T47D cells measured after 48 hrs by SRB assay
SK-MEL-28 = test: Growth inhibition of human SK-MEL-28 cells measured after 48 hrs by SRB assay
LOX IMVI = test: Growth inhibition of human LOX IMVI cells measured after 48 hrs by SRB assay
Malme-3M = test: Growth inhibition of human Malme-3M cells measured after 48 hrs by SRB assay
COLO 205 = test: Growth inhibition of human COLO 205 cells measured after 48 hrs by SRB assay
NCI-H322M = test: Growth inhibition of human NCI-H322M cells measured after 48 hrs by SRB assay
Hs-578T = test: Growth inhibition of human Hs-578T cells measured after 48 hrs by SRB assay
M14 = test: Growth inhibition of human M14 cells measured after 48 hrs by SRB assay
MDA-MB-468 = test: Growth inhibition of human MDA-MB-468 cells measured after 48 hrs by SRB assay
SF-539 = test: Growth inhibition of human SF-539 cells measured after 48 hrs by SRB assay
SR = test: Growth inhibition of human SR cells measured after 48 hrs by SRB assay
UO-31 = test: Growth inhibition of human UO-31 cells measured after 48 hrs by SRB assay
A549 = test: Growth inhibition of human A549 cells measured after 48 hrs by SRB assay
UACC-62 = test: Growth inhibition of human UACC-62 cells measured after 48 hrs by SRB assay
MCF7 = test: Growth inhibition of human MCF7 cells measured after 48 hrs by SRB assay
OVCAR-3 = test: Growth inhibition of human OVCAR-3 cells measured after 48 hrs by SRB assay
PC-3 = test: Growth inhibition of human PC-3 cells measured after 48 hrs by SRB assay
A498 = test: Growth inhibition of human A498 cells measured after 48 hrs by SRB assay
SN12C = test: Growth inhibition of human SN12C cells measured after 48 hrs by SRB assay
HCT-15 = test: Growth inhibition of human HCT-15 cells measured after 48 hrs by SRB assay
K562 = test: Growth inhibition of human K562 cells measured after 48 hrs by SRB assay
SK-MEL-5 = test: Growth inhibition of human SK-MEL-5 cells measured after 48 hrs by SRB assay
MDA-MB-435 = test: Growth inhibition of human MDA-MB-435 cells measured after 48 hrs by SRB assay
HOP-92 = test: Growth inhibition of human HOP-92 cells measured after 48 hrs by SRB assay
MDA-MB-231 = test: Growth inhibition of human MDA-MB-231 cells measured after 48 hrs by SRB assay
HCT-116 = test: Growth inhibition of human HCT-116 cells measured after 48 hrs by SRB assay
SK-OV-3 = test: Growth inhibition of human SK-OV-3 cells measured after 48 hrs by SRB assay
ACHN = test: Growth inhibition of human ACHN cells measured after 48 hrs by SRB assay
KM12 = test: Growth inhibition of human KM12 cells measured after 48 hrs by SRB assay
IGROV-1 = test: Growth inhibition of human IGROV-1 cells measured after 48 hrs by SRB assay
SF-268 = test: Growth inhibition of human SF-268 cells measured after 48 hrs by SRB assay
HL-60 = test: Growth inhibition of human HL-60 cells measured after 48 hrs by SRB assay
RPMI-8226 = test: Growth inhibition of human RPMI-8226 cells measured after 48 hrs by SRB assay
NCI-H23 = test: Growth inhibition of human NCI-H23 cells measured after 48 hrs by SRB assay
NCI-H460 = test: Growth inhibition of human NCI-H460 cells measured after 48 hrs by SRB assay
NCI/ADR-RES = test: Growth inhibition of human NCI/ADR-RES cells measured after 48 hrs by SRB assay
SW-620 = test: Growth inhibition of human SW-620 cells measured after 48 hrs by SRB assay
SNB-19 = test: Growth inhibition of human SNB-19 cells measured after 48 hrs by SRB assay
SF-295 = test: Growth inhibition of human SF-295 cells measured after 48 hrs by SRB assay

Compound `CCO[C@H]1C=C2CC[C@@H]3[C@H]([C@@H](O)C[C@]4(C)[C@@H](c5ccc(=O)oc5)CC[C@]34O)[C@@]2(C)CC1` has a GI50 (SNB-75) of 1060 nM, a GI50 (OVCAR-5) of 2030 nM and a GI50 (HOP-62) of 974 nM. For the same compound, the GI50 (UACC-257) was 1890 nM, the GI50 (NCI-H522) was 252 nM and the GI50 (CAKI-1) was 1150 nM. The GI50 (786-0) was 927 nM, the GI50 (TK-10) was 1300 nM and the GI50 (CCRF-CEM) was 233 nM. For the same compound, the GI50 (OVCAR-8) was 1670 nM, the GI50 (BT-549) was 946 nM and the GI50 (NCI-H226) was 1770 nM. The GI50 (HCC 2998) was 4510 nM, the GI50 (RXF 393) was 709 nM and the GI50 (DU-145) was 423 nM. The GI50 (MOLT-4) was 189 nM, the GI50 (SK-MEL-2) was 1200 nM and the GI50 (T47D) was 2170 nM. For the same compound, the GI50 (SK-MEL-28) was 1660 nM, the GI50 (LOX IMVI) was 1800 nM and the GI50 (Malme-3M) was 1800 nM. It also gave a GI50 (COLO 205) of 4220 nM, a GI50 (NCI-H322M) of 1400 nM and a GI50 (Hs-578T) of 369 nM. It also gave a GI50 (M14) of 1930 nM, a GI50 (MDA-MB-468) of over 550 nM and a GI50 (SF-539) of 968 nM. The GI50 (SR) was 418 nM, the GI50 (UO-31) was 940 nM and the GI50 (A549) was 434 nM. It also gave a GI50 (UACC-62) of 1270 nM, a GI50 (MCF7) of 1520 nM and a GI50 (OVCAR-3) of 618 nM. It also gave a GI50 (PC-3) of 839 nM, a GI50 (A498) of 460 nM and a GI50 (SN12C) of 905 nM. It also gave a GI50 (HCT-15) of 1800 nM, a GI50 (K562) of 1270 nM and a GI50 (SK-MEL-5) of 1360 nM. The GI50 (MDA-MB-435) was 1400 nM, the GI50 (HOP-92) was 757 nM and the GI50 (MDA-MB-231) was over 5750 nM. It also gave a GI50 (HCT-116) of 716 nM, a GI50 (SK-OV-3) of 1910 nM and a GI50 (ACHN) of 251 nM. It also gave a GI50 (KM12) of 2200 nM, a GI50 (IGROV-1) of 1840 nM and a GI50 (SF-268) of 471 nM. It also gave a GI50 (HL-60) of 649 nM, a GI50 (RPMI-8226) of 1450 nM and a GI50 (NCI-H23) of 1360 nM. For the same compound, the GI50 (NCI-H460) was 247 nM, the GI50 (NCI/ADR-RES) was 1610 nM and the GI50 (SW-620) was 911 nM. The GI50 (SNB-19) was 2350 nM and the GI50 (SF-295) was 1200 nM.
